Data as given in patent publication US11208400B2, “Substituted 6-(1H-pyrazol-1-yl)pyrimidin-4-amine derivatives and uses thereof” (Bayer Aktiengesellschaft, priority 2016, dated 2021).
pIC50: −log10 of the molar value.

target: T1, human Npt2a (Homo sapiens, UniProt Q06495); experiment: Npt2a activity cell based assay, membrane potential dye, CHO T-REx hNpt2a cells; conditions: doxycycline-induced, depolarization by sodium phosphate influx, average or median values if tested more than once
T1 construct: expressed in transfected cells
T1 sequence (Q06495 1-639): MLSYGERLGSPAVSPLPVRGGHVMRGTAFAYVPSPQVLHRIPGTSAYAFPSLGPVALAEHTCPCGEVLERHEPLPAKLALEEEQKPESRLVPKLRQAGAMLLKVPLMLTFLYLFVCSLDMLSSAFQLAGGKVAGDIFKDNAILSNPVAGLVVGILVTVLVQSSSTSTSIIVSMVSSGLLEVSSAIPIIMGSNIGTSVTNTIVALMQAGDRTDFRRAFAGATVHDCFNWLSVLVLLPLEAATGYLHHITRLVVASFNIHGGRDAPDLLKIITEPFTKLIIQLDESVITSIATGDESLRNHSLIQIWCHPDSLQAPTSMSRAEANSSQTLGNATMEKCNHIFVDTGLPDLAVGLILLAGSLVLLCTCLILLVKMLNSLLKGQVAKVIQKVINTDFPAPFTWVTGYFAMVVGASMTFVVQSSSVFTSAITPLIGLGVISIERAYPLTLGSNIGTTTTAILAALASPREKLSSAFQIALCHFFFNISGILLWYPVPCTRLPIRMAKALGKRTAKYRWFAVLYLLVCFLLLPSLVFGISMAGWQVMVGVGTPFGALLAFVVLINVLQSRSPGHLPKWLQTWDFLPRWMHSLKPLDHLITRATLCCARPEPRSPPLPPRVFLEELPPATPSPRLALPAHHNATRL
How it was run: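 Cells were doxycycline-induced CHO T-REx hNpt2a, dye-loaded and pretreated 5 min at RT with 1 nM–50 μM compound in Na-free pH 7.4 buffer. IC50 was fit to the post/pre-trigger fluorescence ratio.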

Compound	pIC50
COc1ccc(-c2nn(C)c(Nc3cc(-n4nc(C)cc4C(F)F)ncn3)c2C)cn1 [Example 499, 6-[5-(difluoromethyl)-3-methyl-1H-pyrazol-1-yl]-N-[3-(6-methoxypyridin-3-yl)-1,4-dimethyl-1H-pyrazol-5-yl]pyrimidin-4-amine]	5.50
Cc1nn(-c2cc(Nc3c(C)c(-c4ccc(OC(F)(F)F)cc4)nn3CC3CC3)ncn2)c(C(C)(C)O)c1Cl [Example 290, 2-{4-chloro-1-[6-({1-(cyclopropylmethyl)-4-methyl-3-[4-(trifluoromethoxy)phenyl]-1H-pyrazol-5-yl}amino)pyrimidin-4-yl]-3-methyl-1H-pyrazol-5-yl}propan-2-ol]	6.77
CCCN1Cc2cn(-c3cc(Nc4c(C)c(-c5ccc(F)cc5)nn4CC4CC4)ncn3)nc2C1 [Example 523, N-[1-(cyclopropylmethyl)-3-(4-fluorophenyl)-4-methyl-1H-pyrazol-5-yl]-6-(5-propyl-5,6-dihydropyrrolo[3,4-c]pyrazol-2(4H)-yl)pyrimidin-4-amine]	6.16
COC(C)c1c(C)nn(-c2cc(Nc3c(C)c(-c4ccc(C#N)cc4)nn3C)ncn2)c1C (single isomer, unassigned) [Example 340, 4-{5-[(6-{4-[1-methoxyethyl]-3,5-dimethyl-1H-pyrazol-1-yl}pyrimidin-4-yl)amino]-1,4-dimethyl-1H-pyrazol-3-yl}benzonitrile]	7.92
CC(=O)Cc1c(C)nn(-c2cc(Nc3c(C)c(-c4ccc(F)cc4)nn3CC3CC3)ncn2)c1C [Example 490, 1-[1-(6-{[1-(cyclopropylmethyl)-3-(4-fluorophenyl)-4-methyl-1H-pyrazol-5-yl]amino}pyrimidin-4-yl)-3,5-dimethyl-1H-pyrazol-4-yl]propan-2-one]	8.22
COCCn1nc(-c2ccc(C(F)F)cc2)c(C)c1Nc1cc(-n2nc(C)c(OC)c2C)ncn1 [Example 539, N-{3-[4-(difluoromethyl)phenyl]-1-(2-methoxyethyl)-4-methyl-1H-pyrazol-5-yl}-6-(4-methoxy-3,5-dimethyl-1H-pyrazol-1-yl)pyrimidin-4-amine]	7.70
Cc1nn(-c2cc(Nc3c(Cl)c(-c4ccc(F)cc4)nn3CC3CC3)ncn2)c(C)c1Cl [Example 185, N-[4-chloro-1-(cyclopropylmethyl)-3-(4-fluorophenyl)-1H-pyrazol-5-yl]-6-(4-chloro-3,5-dimethyl-1H-pyrazol-1-yl)pyrimidin-4-amine]	7.57
CCc1c(Nc2cc(-n3nc(C)c4ncccc43)ncn2)nn(C)c1-c1ccc(F)cc1 [Example 223, N-[4-ethyl-5-(4-fluorophenyl)-1-methyl-1H-pyrazol-3-yl]-6-(3-methyl-1H-pyrazolo[4,3-b]pyridin-1-yl)pyrimidin-4-amine]	7.44
Cc1cc(C)n(-c2cc(Nc3nn(CCC4CC4)c(-c4ccc(C#N)cc4)c3C)ncn2)n1 [Example 212, 4-[1-(2-cyclopropylethyl)-3-{[6-(3,5-dimethyl-1H-pyrazol-1-yl)pyrimidin-4-yl]amino}-4-methyl-1H-pyrazol-5-yl]benzonitrile]	5.93
Cc1nn(-c2cc(Nc3c(C)c(-c4ccc(C(F)F)cc4)nn3CC3CC3)ncn2)c(C)c1C(C)(C)O [Example 396, 2-{1-[6-({1-(cyclopropylmethyl)-3-[4-(difluoromethyl)phenyl]-4-methyl-11H-pyrazol-5-yl}amino)pyrimidin-4-yl]-3,5-dimethyl-1H-pyrazol-4-yl}propan-2-ol]	7.80
Cc1cc(C(F)F)n(-c2cc(Nc3c(C)c(-c4ccc(C(F)F)nc4)nn3C)ncn2)n1 [Example 481, 6-[5-(difluoromethyl)-3-methyl-1H-pyrazol-1-yl]-N-{3-[6-(difluoromethyl)pyridin-3-yl]-1,4-dimethyl-1H-pyrazol-5-yl}pyrimidin-4-amine]	5.85
Cc1nn(-c2cc(Nc3c(C)c(-c4ccc(F)cn4)nn3CC3CC3)ncn2)c(C)c1Cl [Example 439, 6-(4-chloro-3,5-dimethyl-1H-pyrazol-1-yl)-N-[1-(cyclopropylmethyl)-3-(5-fluoropyridin-2-yl)-4-methyl-1H-pyrazol-5-yl]pyrimidin-4-amine]	7.41
